Test results as given in ChEMBL document CHEMBL4364312, “Design, synthesis and biological evaluation of hydroxypyridinone-coumarin hybrids as multimodal monoamine oxidase B inhibitors and iron chelates against Alzheimer's disease” (Eur J Med Chem, 2019).

What was measured:
[1] = physchem; details: DMSO:KCl
Description: Dissociation constant, pKa1 of compound for protonation of the 4-oxo group in DMSO:KCl at 30 uM/L incubated for 1 min by UV-Vis spectrophotometry

[2] = target: T1, Amine oxidase [flavin-containing] B (Homo sapiens, UniProt P27338); details: 0.25 h, read-out: INH
T1 sequence (P27338 whole entry): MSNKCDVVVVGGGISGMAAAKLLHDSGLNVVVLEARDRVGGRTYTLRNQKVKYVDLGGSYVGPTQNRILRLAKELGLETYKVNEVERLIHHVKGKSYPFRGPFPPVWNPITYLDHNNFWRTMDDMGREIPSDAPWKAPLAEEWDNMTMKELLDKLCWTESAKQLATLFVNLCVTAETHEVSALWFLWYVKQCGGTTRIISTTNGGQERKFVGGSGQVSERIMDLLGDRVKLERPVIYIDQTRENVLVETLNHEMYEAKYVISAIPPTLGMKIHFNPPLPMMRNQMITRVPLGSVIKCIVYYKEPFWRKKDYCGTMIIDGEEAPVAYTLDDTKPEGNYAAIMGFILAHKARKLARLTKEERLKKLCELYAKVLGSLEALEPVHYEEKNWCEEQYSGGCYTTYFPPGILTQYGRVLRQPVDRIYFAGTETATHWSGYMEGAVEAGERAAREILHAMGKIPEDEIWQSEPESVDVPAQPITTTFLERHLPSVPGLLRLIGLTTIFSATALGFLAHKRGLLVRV
Description: Inhibition of recombinant human MAO-B expressed in baculovirus infected BTI insect cells at 10 uM incubated for 15 mins with substrate p-Tyramine by fluorescence assay relative to control

[3] = physchem; details: DMSO:KCl; remark: listed apart in the source
Description: Dissociation constant, pKa2 of compound for 3-(or 5-) hydroxyl group in DMSO:KCl at 30 uM/L incubated for 1 min by UV-Vis spectrophotometry

[4] = target: T1, Amine oxidase [flavin-containing] B; test: biochemical
Description: Inhibition of recombinant human MAO-B expressed in baculovirus infected BTI insect cells incubated for 15 mins with substrate p-Tyramine by fluorescence assay

[5] = Binding affinity to Fe3+ assessed as equilibrium binding constant logK3 in KCl pH 2 to 10.5 at […] 30 uM by UV-Vis spectrophotometric method
[6] = Binding affinity to Fe3+ assessed as equilibrium binding constant logK2 in KCl pH 2 to 10.5 at 30 uM incubated for 20 mins by UV-Vis spectrophotometric method
[7] = tested on: Mus musculus; test: Cognition enhancement in scopolamine-induced impairment in ICR mouse assessed as latency time at 10 mg/kg, ip administered once daily for 2 weeks pretreated with scopolamine for 30 mins and measured at 5th day of training session by Morris water maze test (reference value: 40.2 +/- 10.5 sec); assay type: functional
[8] = tested on: U-251; test: Cytotoxicity against human U251 cells assessed as reduction in cell viability at 0.01 to 100 uM incubated for 24 hrs by MTS assay; assay type: cell-based; details: u-251, 24 h
[9] = tested on: U-251; test: Cytoprotective against H2O2-induced cell death in human U251 cells assessed as increase in cell viability at 100 uM preincubated for 24 hrs followed by H2O2 induction and measured after 1 hr by MTS assay (reference value: 50%); assay type: functional
[10] = tested on: Mus musculus; test: (§1) Cognition enhancement in scopolamine-induced impairment in ICR mouse assessed as distance to target at 10 mg/kg, ip administered once daily for 2 weeks pretreated with scopolamine for 30 mins and measured at 5th day of training session by Morris water maze test (reference value: 10.4 +/- 1.2 meter); assay type: functional
[11] = tested on: Mus musculus; test: as §1, with “number of times” for “distance”, “to enter” for “to”, “target quadrant” for “target”, “9.0” for “10.4”, “0.8)” for “1.2 meter)”; assay type: functional

Structure (SMILES) | pKa at 1 min, 30 µM [1] | inhibition at 10 µM [2] | pKa at 1 min, 30 µM [3] | IC50 [4] | other results
C#CCOc1ccc2cc(Cn3ccc(=O)c(O)c3C)c(=O)oc2c1 | 3.11 | 47.1% | 9.58 | – | –
Cc1cc(=O)c(O)cn1Cc1cc2ccc(OCc3ccc(F)cc3)cc2oc1=O | 3.26 | 87.6% | 8.87 | 145 nM | –
Cc1c(O)c(=O)ccn1Cc1cc2ccc(OCc3ccccc3)cc2oc1=O | 3.11 | 89.6% | 9.61 | 336 nM | –
Cc1c(O)c(=O)ccn1C [DEFERIPRONE] | 3.65 | – | 9.89 | – | logKb [5]: 37.3; logKb [6]: 27.7
CCc1c(O)c(=O)ccn1Cc1cc2ccc(OCc3ccccc3)cc2oc1=O | 3.11 | 91.9% | 9.71 | 129 nM | –
Cc1c(O)c(=O)ccn1Cc1cc2ccccc2oc1=O | 3.07 | 22.4% | 9.68 | – | –
CCc1c(O)c(=O)ccn1Cc1cc2ccccc2oc1=O | 3.03 | 25% | 9.7 | – | –
Cc1c(O)c(=O)ccn1Cc1cc2ccc(OCc3cccc(F)c3)cc2oc1=O | 3.1 | 81.3% | 9.65 | 14.7 nM | Time [7]: 9.6 s; Activity [8]: Non-Toxic; Activity [9]: 57.8%; Activity [10]: 4.2 m; Activity [11]: 16.6
C#CCOc1ccc2cc(Cn3ccc(=O)c(O)c3CC)c(=O)oc2c1 | 2.95 | 78.1% | 9.63 | 121 nM | –
Cc1cc(=O)c(O)cn1Cc1cc2ccccc2oc1=O | 3.14 | 6.8% | 8.97 | – | –
Cc1cc(=O)c(O)cn1Cc1cc2ccc(OCc3ccccc3)cc2oc1=O | 3.12 | 86.5% | 9.03 | 290 nM | –
CCc1c(O)c(=O)ccn1Cc1cc2ccc(OCc3ccc(F)cc3)cc2oc1=O | 3.15 | 91.6% | 9.62 | 163 nM | –
Cc1cc(=O)c(O)cn1Cc1cc2ccc(OCc3cccc(F)c3)cc2oc1=O | 3.15 | 85.8% | 8.99 | 193 nM | –
C#CCOc1ccc2cc(Cn3cc(O)c(=O)cc3C)c(=O)oc2c1 | 3.07 | 50.6% | 8.94 | – | –
C#CCN(C)Cc1ccccc1 [PARGYLINE] | – | – | – | – | Time [7]: 5.6 s; Activity [9]: 61.5%; Activity [10]: 6.6 m; Activity [11]: 16.3
Cc1c(O)c(=O)ccn1Cc1cc2ccc(OCc3cc(F)cc(F)c3)cc2oc1=O | 3.1 | 67.5% | 9.54 | – | –
CCc1c(O)c(=O)ccn1Cc1cc2ccc(OCc3cccc(F)c3)cc2oc1=O | 3.12 | 91.9% | 9.69 | 265 nM | –
CCc1c(O)c(=O)ccn1Cc1cc2ccc(OCc3cc(F)cc(F)c3)cc2oc1=O | 3.08 | 91.7% | 9.7 | 223 nM | –
Cc1c(O)c(=O)ccn1Cc1cc2ccc(OCc3cccc(Cl)c3)cc2oc1=O | 3.17 | 21.2% | 9.67 | – | –
COc1ccc2cc(Cn3ccc(=O)c(O)c3C)c(=O)oc2c1 | 3.13 | 94.4% | 9.66 | 91.9 nM | –
Cc1cc(=O)c(O)cn1Cc1cc2ccc(OCc3cccc(Cl)c3)cc2oc1=O | 3.16 | 82% | 9.07 | 126 nM | –
O=C1O[C@H]([C@@H](O)CO)C(O)=C1O [ASCORBIC ACID] | – | – | – | – | Activity [9]: 57.6%
CCc1c(O)c(=O)ccn1Cc1cc2ccc(OCc3cccc(Cl)c3)cc2oc1=O | 3.1 | 92.5% | 9.76 | 425 nM | –
COc1ccc2cc(Cn3cc(O)c(=O)cc3C)c(=O)oc2c1 | 3.15 | 38.3% | 9 | – | –
Cc1cc(=O)c(O)cn1Cc1cc2ccc(OCc3cc(F)cc(F)c3)cc2oc1=O | 3.11 | 68.1% | 8.95 | – | –
CCc1c(O)c(=O)ccn1Cc1cc2ccc(OC)cc2oc1=O | 3.09 | 50.7% | 9.7 | – | –
